Square brackets hold non-standard residues; d marks the D form. Ends that are not written are not given here.

The text below walks through data of patent US10945962B2, “Controlled-release peptide compositions and uses thereof” (BOARD OF REGENTS OF THE UNIVERSITY OF NEBRASKA, priority 2011, dated 2021).

Experiment [1] has as its system neutrophils. The experiment in a line: Neutrophil chemotaxis and myeloperoxidase assay, histopathology of injection site. In kind it is in vivo, CD1 mice. The note with it: 250 μg s.c., no bacteria. Here is the method: Neutrophil chemotaxis and myeloperoxidase assay. Neutrophil recruitment at the site of injection by EP67 or sEP67 was examined using an in vivo chemotaxis assay as described previously (van Sorge N M, et al., PLoS One 2008; 3:e2964). Briefly, 250 μg EP67 or sEP67 were injected subcutaneously into the right flank of CD1 mice. The injection was repeated after 24 h. Mice were euthanized 4 h after the second injection and the site of injection excised for histopathologic analysis or determination of myeloperoxidase (MPO) activity as described previously (van Sorge N M, et al., supra). The assay was carried out two times and the samples analyzed in duplicate.
Neutrophil influx is essential for the protective action of EP67. […] Neutrophil recruitment to the site of EP67 injection was further analyzed using an in vivo neutrophil recruitment assay as described previously (van Sorge N M, et al., supra; and Banerjee A, et al., Cell Microbiol; 12:1576-1588). Neutrophil migration was assessed in skin homogenates following injection of EP67 or sEP67 by determining the level of neutrophil enzyme myeloperoxidase (MPO), which serves as an effective indication of neutrophil infiltration (Banerjee A, et al., supra; and Bradley P P, et al., J Invest Dermatol 1982; 78:206-209). This method compares well with other in vivo assays of neutrophil chemotaxis (van Sorge N M, et al., supra).

Experiment [2] concerns E. coli strain DHSα. The experiment in a line: Direct killing of bacteria, OD600 growth curves. The format is cell-based. To be noted: added at OD600 0.2, 500 μg/m, LB or TSB. The procedure:
E. coli strain DHSα was grown overnight in Lennox Broth (LB). This culture was diluted to an optical density at […] (OD600) of 0.06. The diluted E. coli was dispensed in 1.5 ml aliquots into separate tubes and 1.5 ml of EP67 ([…] ID NO: 4)), EP54 ([…] NO: 3)), scrambled-EP67 (s-EP67) or scrambled-EP54 in LB was added to obtain a final concentration of 500 μg/ml with the E. coli at an OD600 of 0.03. A culture in LB was also prepared. The cultures were incubated at 37° C. with shaking and the OD600 readings recorded hourly. In order to determine whether the growth media altered the effectiveness of EP67, LB was replaced with an alternative growth media, Tryptic Soy Broth (TSB). To test the efficacy of EP67 on bacteria growing in log phase, overnight cultures of DHSα were grown in either LB or TSB. […] DH5α control cultures (absence of additives) were also prepared. The tubes were further shaken at 37° C. and OD600 readings were taken hourly.

For experiment [3], the system named is MUC1 epitope. The experiment in a line: Immunization with MUC1/C5a agonist peptides, serum antibody responses (RIA, ELISA). To be noted: 100 μg i.p. with RIBI adjuvant, three immunizations, Balb/c and C57B16 mice. The format is in vivo. The source says:
Animal Models. The strains of mice used in the studies described in this Example were inbred 6- to 12-week-old C57B16(H-2b) and Balb/c ([…]) females obtained from Jackson Labs (Bar Harbor, Me.). […] The MUC1 peptide selected for these studies contained a motif that may bind to the H-2Kb molecule of the C57B16 mice. Therefore, a strain of mouse that lacked this class I molecule-binding motif (Balb/c) was also studied to determine the relative contribution of the class I-binding motif to the antigen presentation properties of these peptides.
Immunization Protocol. Preimmune sera were obtained from mice, which were subsequently immunized intraperitoneally with 100 μg of the indicated peptide with RIBI adjuvant (MPL+TDM+CWS) (Sigma Immunochemicals). Animals were boosted twice at two-week intervals using the same injection procedure. Sera were obtained following three immunizations (at 6 weeks).
Analysis of Serum Antibody Responses. For radioimmunoassay (RIA), anti-peptide antibodies were determined, before and at different time points after immunization, in 96-well microtiter plates (Dynatech Laboratories, Inc.). Plates were coated with 50 μl of a 100 μg/ml appropriate peptide in phosphate-buffered saline (PBS) pH 7.4 solution overnight at 4° C. The wells were blocked by incubation with 5% dry milk in PBS pH 7.4 for at least two hours. Anti-peptide antibody titers were determined using serial dilutions of sera. […] After washing, specific radioactivity was recorded in a gamma counter (1272 CliniGamma, LKB).
Anti-peptide antibody isotype titers were determined by enzyme-linked immunosorbent assay (ELISA) carried out in 96-well microtiter plates. […] Anti-peptide titers were determined using serial dilutions of sera. […] Again, the plates were washed 4 times with washing buffer and bound enzyme was detected by the addition of 50 μl 1 mg/ml p-nitrophenyl phosphate (Sigma) in 10% diethanolamine (Sigma) pH 9.4. The reaction was stopped by the addition of 50 μl of 0.5 M sodium hydroxide and absorbance values (A405) were determined using Titertek Multiskan (Flow Laboratories, Irvine, Scotland). […]
A general note: In an ELISA, binding on a coated surface is turned into a signal by an enzyme label.

As for “(MeL)RMYKPaFDS [sEP67, reference compound]”, the “histopathologic analysis of skin tissue” value in experiment [1] is “normal pathology”. In addition, in experiment [2], the “effect on log phase growth (OD600)” value is reported as “little or no effect on growth”.

As for “Tyr-Ser-Phe-Lys-Pro-Met-Pro-Leu-(D-Ala)-Arg (YSFKPMPL[dA]R) [EP54, C5a C-terminal decapeptide agonist analog]”, the “antibody response to inoculation” value in experiment [3] is listed as “no appreciable increase in antibody response”.

“YSFKPMPLaRKQGGFLGL (YSFKPMPL[dA]RKQGGFLGL; listed as Homo sapiens) [peptide 4]”: the “antibody response to inoculation” value in experiment [3] is listed as “immune responses were not produced”; in experiment [3] (listed as MUC1 epitope conjugated to the C5a agonist peptide at its C-terminus), “no appreciable increase in antibody response”.
